6 compounds from ChEMBL document CHEMBL1255485, “In vitro activity of fidaxomicin (OPT-80) tested against contemporary clinical isolates of Staphylococcus spp. and Enterococcus spp” (2010) can be followed below.

Converted amounts (≈) assume the structure as drawn.

What all share (type): functional
Assay [1] has as its system Staphylococcus aureus. Put plainly: Antibacterial activity against methicillin-resistant Staphylococcus aureus assessed as percent resistant isolates by broth microdilution method. For orientation: Dilution methods test growth across graded concentrations, often in twofold steps.
In assay [2] the test system is Staphylococcus aureus. Put plainly: Antibacterial activity against methicillin-susceptible Staphylococcus aureus assessed as percent resistant isolates by broth microdilution method.
Assay [3] deals with Enterococcus faecalis. Put plainly: Antibacterial activity against vancomycin-susceptible Enterococcus faecalis by broth microdilution method.
In assay [4] the test system is Staphylococcus. Nature of the assay: Antibacterial activity against methicillin-susceptible coagulase-negative Staphylococcus by broth microdilution method.
Assay [5] deals with Staphylococcus aureus. Put plainly: Antibacterial activity against methicillin-susceptible Staphylococcus aureus by broth microdilution method.
The test system of assay [6] is Staphylococcus aureus. Put plainly: Antibacterial activity against linezolid-nonsusceptible Staphylococcus aureus by broth microdilution method.
For assay [7], the system named is Enterococcus faecalis. Nature of the assay: Selectivity ratio of MBC to MIC for Enterococcus faecalis.
Assay [8] can be described thus: Selectivity ratio of MIC50 for vancomycin-susceptible Enterococcus faecium to MIC50 for vancomycin-susceptible Enterococcus faecalis.
Assay [9] has as its system Staphylococcus aureus. Nature of the assay: Selectivity ratio of MIC50 for methicillin-susceptible Staphylococcus aureus to MIC50 for methicillin-resistant Staphylococcus aureus.
Another assay relates to Enterococcus. Nature of the assay: Antibacterial activity against Enterococcus by agar dilution technique.
Assay [10] can be described thus: Selectivity ratio of MIC50 for vancomycin-resistant Enterococcus faecium to MIC50 for vancomycin-resistant Enterococcus faecalis.
The test system of assay [11] is Enterococcus faecium. Nature of the assay: Antibacterial activity against vancomycin-resistant Enterococcus faecium by broth microdilution method.
Assay [12] deals with Enterococcus faecium. Nature of the assay: Antibacterial activity against vancomycin-susceptible Enterococcus faecium by broth microdilution method.
For assay [13], the system named is Staphylococcus. Put plainly: Selectivity ratio of MBC to MIC for coagulase-negative Staphylococcus.
Assay [14] deals with Staphylococcus. Put plainly: Antibacterial activity against Staphylococcus by agar dilution technique. On the technique in general: Agar dilution tests growth on a series of plates holding different concentrations.
Assay [15] concerns Staphylococcus aureus. Put plainly: Antibacterial activity against methicillin-resistant Staphylococcus aureus by broth microdilution method.
In assay [16] the test system is Enterococcus faecalis. Put plainly: Antibacterial activity against vancomycin-resistant Enterococcus faecalis by broth microdilution method.
Assay [17] in a line: Selectivity ratio of MIC90 for vancomycin-resistant Enterococcus faecium to MIC90 for vancomycin-resistant Enterococcus faecalis.
Assay [18] deals with Enterococcus faecium. Nature of the assay: Selectivity ratio of MBC to MIC for Enterococcus faecium.
Assay [19] deals with Staphylococcus aureus. Put plainly: Selectivity ratio of MBC to MIC for Staphylococcus aureus.
Assay [20] relates to Staphylococcus. Put plainly: Antibacterial activity against methicillin-resistant coagulase-negative Staphylococcus by broth microdilution method.
For assay [21], the system named is Enterococcus faecium. Put plainly: Antibacterial activity against vancomycin-resistant Enterococcus faecium assessed as percent resistant isolates by broth microdilution method.
Assay [22] has as its system Staphylococcus. Nature of the assay: Antibacterial activity against methicillin-susceptible coagulase-negative Staphylococcus assessed as percent susceptible isolates by broth microdilution method.
For assay [23], the system named is Enterococcus faecium. Put plainly: Antibacterial activity against vancomycin-susceptible Enterococcus faecium assessed as percent resistant isolates by broth microdilution method.
Assay [24] has as its system Enterococcus faecalis. Nature of the assay: Antibacterial activity against vancomycin-susceptible Enterococcus faecalis assessed as percent susceptible isolates by broth microdilution method.
Assay [25] concerns Enterococcus faecium. Nature of the assay: Antibacterial activity against vancomycin-susceptible Enterococcus faecium assessed as percent susceptible isolates by broth microdilution method.
The test system of assay [26] is Staphylococcus. Put plainly: Antibacterial activity against methicillin-resistant coagulase-negative Staphylococcus assessed as percent susceptible isolates by broth microdilution method.
The subject of assay [27] is Enterococcus faecium. Nature of the assay: Antibacterial activity against vancomycin-resistant Enterococcus faecium assessed as percent susceptible isolates by broth microdilution method.
Assay [28] concerns Enterococcus faecalis. Put plainly: Antibacterial activity against vancomycin-susceptible Enterococcus faecalis assessed as percent resistant isolates by broth microdilution method.
For assay [29], the system named is Staphylococcus. Put plainly: Antibacterial activity against methicillin-resistant coagulase-negative Staphylococcus assessed as percent resistant isolates by broth microdilution method.
For assay [30], the system named is Enterococcus faecalis. Put plainly: Antibacterial activity against vancomycin-resistant Enterococcus faecalis assessed as percent susceptible isolates by broth microdilution method.
The test system of assay [31] is Enterococcus faecalis. Put plainly: Antibacterial activity against vancomycin-resistant Enterococcus faecalis assessed as percent resistant isolates by broth microdilution method.

With `CCC[C@@H]1C[C@@H](C(=O)N[C@@H]([C@H]2O[C@H](SC)[C@H](O)[C@@H](O)[C@H]2O)[C@H](C)Cl)N(C)C1` [CLINDAMYCIN], the figures for the Activity with Staphylococcus aureus [1] and in the assay with Staphylococcus aureus [2] were 43.8% and 2.3%, respectively.
With `CC[C@H]1OC(=O)[C@H](C)[C@@H](O[C@H]2C[C@@](C)(OC)[C@@H](O)[C@H](C)O2)[C@H](C)[C@@H](O[C@@H]2O[C@H](C)C[C@H](N(C)C)[C@H]2O)[C@](C)(O)C[C@@H](C)C(=O)[C@H](C)[C@@H](O)[C@]1(C)O` [ERYTHROMYCIN], the Activity in the assay with Staphylococcus aureus [1] is on record as 87.5%; in the assay on Staphylococcus aureus [2], 16.3%.
As a reminder, the MIC is the lowest concentration that inhibits growth of the organism. Low values mean inhibition by little substance, high ones a need for much substance. For orientation: MIC50 means the lowest concentration that inhibits either 50% of growth or 50% of the strains tested, depending on the study. The term MIC90 denotes the lowest concentration that inhibits either 90% of growth or 90% of the strains tested, depending on the study. A low value points to greater potency. In the case of `CCc1c(Cl)c(O)c(Cl)c(O)c1C(=O)O[C@H]1[C@H](O)[C@H](OC)[C@H](OC/C2=C\C=C\C[C@H](O)/C(C)=C/[C@H](CC)[C@@H](O[C@@H]3OC(C)(C)[C@@H](OC(=O)C(C)C)[C@H](O)[C@@H]3O)/C(C)=C/C(C)=C/C[C@@H]([C@@H](C)O)OC2=O)O[C@@H]1C` [FIDAXOMICIN], the results for the MIC in the assay on Enterococcus faecalis [3], with Staphylococcus aureus [6] and in the assay on Enterococcus faecalis [16] were 2 µg/mL (≈ 1.89 µM), more than 4 µg/mL and 2 µg/mL (≈ 1.89 µM), respectively. Also, the MIC50 stood at 2 µg/mL (≈ 1.89 µM) against Enterococcus faecalis [3]; 2 µg/mL (≈ 1.89 µM) in the assay with Staphylococcus [4]; 8 µg/mL (≈ 7.56 µM) against Staphylococcus aureus [5]; 4 µg/mL (≈ 3.78 µM) against Enterococcus faecium [11]; 4 µg/mL (≈ 3.78 µM) against Enterococcus faecium [12]; 4 µg/mL (≈ 3.78 µM) against Staphylococcus aureus [15]. Moreover, the MIC50 turned out to be 2 µg/mL (≈ 1.89 µM) in the assay with Enterococcus faecalis [16] and 1 µg/mL (≈ 0.945 µM) against Staphylococcus [20]. Besides, the MIC90 against Enterococcus faecalis [3] was found to be 4 µg/mL (≈ 3.78 µM); against Staphylococcus [4], 4 µg/mL (≈ 3.78 µM); with Staphylococcus aureus [5], 8 µg/mL (≈ 7.56 µM); against Enterococcus, 8 µg/mL (≈ 7.56 µM); against Enterococcus faecium [11] it was 4 µg/mL (≈ 3.78 µM); against Enterococcus faecium [12], 4 µg/mL (≈ 3.78 µM). Besides, the MIC90 in the assay on Staphylococcus [14] is 2 µg/mL (≈ 1.89 µM); in the assay on Staphylococcus aureus [15], 8 µg/mL (≈ 7.56 µM); against Enterococcus faecalis [16], 2 µg/mL (≈ 1.89 µM); in the assay on Staphylococcus [20] it was 4 µg/mL (≈ 3.78 µM). Besides, the Selectivity ratio result with Enterococcus faecalis [7], in the assay on Staphylococcus [13], in the assay with Enterococcus faecium [18] and with Staphylococcus aureus [19] was “>=16” each time. Besides, the Ratio (in [8]; with Staphylococcus aureus [9]; in assay [10]; in assay [17]) was 2 each time.
For `C[C@H]1COc2c(N3CCN(C)CC3)c(F)cc3c(=O)c(C(=O)O)cn1c23.C[C@H]1COc2c(N3CCN(C)CC3)c(F)cc3c(=O)c(C(=O)O)cn1c23.O` [LEVOFLOXACIN], the figures for the Activity in the assay with Staphylococcus aureus [1] and in the assay with Staphylococcus aureus [2] were 56.3% and 9.3%, respectively.
As to `CO[C@H]1/C=C/O[C@@]2(C)Oc3c(C)c(O)c4c(O)c(c(/C=N/N5CCN(C)CC5)c(O)c4c3C2=O)NC(=O)/C(C)=C\C=C\[C@H](C)[C@H](O)[C@@H](C)[C@@H](O)[C@@H](C)[C@H](OC(C)=O)[C@@H]1C` [RIFAMPIN], the figures for the Activity with Staphylococcus aureus [1] and in the assay with Staphylococcus aureus [2] were 18.8% and 2.3%, respectively.
Take `CN[C@H](CC(C)C)C(=O)N[C@H]1C(=O)N[C@@H](CC(N)=O)C(=O)N[C@H]2C(=O)N[C@H]3C(=O)N[C@H](C(=O)N[C@H](C(=O)O)c4cc(O)cc(O)c4-c4cc3ccc4O)[C@H](O)c3ccc(c(Cl)c3)Oc3cc2cc(c3O[C@@H]2O[C@H](CO)[C@@H](O)[C@H](O)[C@H]2O[C@H]2C[C@](C)(N)[C@H](O)[C@H](C)O2)Oc2ccc(cc2Cl)[C@H]1O` [VANCOMYCIN]: the MIC against Enterococcus faecalis [3] was 1 µg/mL (≈ 0.69 µM); in the assay on Enterococcus faecium [11], more than 16 µg/mL; in the assay with Enterococcus faecalis [16], more than 16 µg/mL. The MIC50 with Enterococcus faecalis [3] was 1 µg/mL (≈ 0.69 µM); in the assay on Staphylococcus [4], 1 µg/mL (≈ 0.69 µM); against Staphylococcus aureus [5] it was 1 µg/mL (≈ 0.69 µM); in the assay on Enterococcus faecium [11], more than 16 µg/mL; against Enterococcus faecium [12], more than 0.5 µg/mL; against Staphylococcus aureus [15] it was 1 µg/mL (≈ 0.69 µM). Besides, the MIC50 against Enterococcus faecalis [16] is more than 16 µg/mL; in the assay with Staphylococcus [20], 2 µg/mL (≈ 1.38 µM). The MIC90 was 1 µg/mL (≈ 0.69 µM) against Enterococcus faecalis [3]; 2 µg/mL (≈ 1.38 µM) against Staphylococcus [4]; 1 µg/mL (≈ 0.69 µM) against Staphylococcus aureus [5]; more than 16 µg/mL in the assay on Enterococcus faecium [11]; 1 µg/mL (≈ 0.69 µM) against Enterococcus faecium [12]; 16 µg/mL (≈ 11 µM) against Staphylococcus aureus [15]. The MIC90 was more than 16 µg/mL with Enterococcus faecalis [16] and 2 µg/mL (≈ 1.38 µM) in the assay on Staphylococcus [20]. For the same compound, the Activity in the assay on Enterococcus faecium [21] turned out to be 100%; in the assay with Staphylococcus [22] it was 100%; with Enterococcus faecium [23] it was 0%; in the assay with Enterococcus faecalis [24], 100%; with Enterococcus faecium [25] it was 100%; in the assay with Staphylococcus [26], 100%. The Activity in the assay on Enterococcus faecium [27] is reported as 0%; with Enterococcus faecalis [28] it was 0%; in the assay on Staphylococcus [29], 0%; with Staphylococcus aureus [1], 15.6%; with Enterococcus faecalis [30] it was 0%; in the assay with Enterococcus faecalis [31] it was 100%. The Activity in the assay with Staphylococcus aureus [2] is listed as 0%.
